# Data taken from paper PMC7026418, “The kinase polypharmacology landscape of clinical PARP inhibitors” (Scientific Reports, 2020).
# Where two headings read alike, the source gives them in different places.
# How the values were obtained:
# Assay in all cases: biochemical
# Set-up in all cases: DiscoveRx KINOMEscan active site-directed competition binding; percent of control kinase bound to immobilised ligand
# MARK4 = target: T1, MARK4 (Homo sapiens, UniProt Q96L34)
# T1 sequence (Q96L34 1-752): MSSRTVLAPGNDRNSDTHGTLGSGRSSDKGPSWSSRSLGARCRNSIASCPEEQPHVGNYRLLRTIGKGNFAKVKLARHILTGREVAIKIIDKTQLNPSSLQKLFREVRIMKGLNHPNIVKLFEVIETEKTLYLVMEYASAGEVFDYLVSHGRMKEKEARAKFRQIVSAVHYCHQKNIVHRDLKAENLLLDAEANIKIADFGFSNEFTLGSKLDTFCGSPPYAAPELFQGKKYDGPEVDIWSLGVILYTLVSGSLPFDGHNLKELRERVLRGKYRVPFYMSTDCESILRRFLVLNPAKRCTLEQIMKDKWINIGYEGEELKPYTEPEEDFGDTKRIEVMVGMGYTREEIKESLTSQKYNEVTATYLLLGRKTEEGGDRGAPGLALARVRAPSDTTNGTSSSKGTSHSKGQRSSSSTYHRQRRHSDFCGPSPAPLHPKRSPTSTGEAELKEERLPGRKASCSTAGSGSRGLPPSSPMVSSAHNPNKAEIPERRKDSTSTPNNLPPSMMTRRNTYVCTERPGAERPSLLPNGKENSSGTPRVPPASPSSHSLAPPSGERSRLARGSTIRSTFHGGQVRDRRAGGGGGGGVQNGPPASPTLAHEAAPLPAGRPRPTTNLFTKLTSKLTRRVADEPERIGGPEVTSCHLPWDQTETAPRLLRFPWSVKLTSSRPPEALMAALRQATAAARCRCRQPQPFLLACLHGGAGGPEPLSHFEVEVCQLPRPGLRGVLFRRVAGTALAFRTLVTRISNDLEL
# ERK5 = target: T2, ERK5 (Homo sapiens, UniProt Q13164)
# T2 construct: gene MAPK7
# RIPK1 = target: T3, RIPK1 (Homo sapiens, UniProt Q13546)
# T3 sequence (Q13546 1-671): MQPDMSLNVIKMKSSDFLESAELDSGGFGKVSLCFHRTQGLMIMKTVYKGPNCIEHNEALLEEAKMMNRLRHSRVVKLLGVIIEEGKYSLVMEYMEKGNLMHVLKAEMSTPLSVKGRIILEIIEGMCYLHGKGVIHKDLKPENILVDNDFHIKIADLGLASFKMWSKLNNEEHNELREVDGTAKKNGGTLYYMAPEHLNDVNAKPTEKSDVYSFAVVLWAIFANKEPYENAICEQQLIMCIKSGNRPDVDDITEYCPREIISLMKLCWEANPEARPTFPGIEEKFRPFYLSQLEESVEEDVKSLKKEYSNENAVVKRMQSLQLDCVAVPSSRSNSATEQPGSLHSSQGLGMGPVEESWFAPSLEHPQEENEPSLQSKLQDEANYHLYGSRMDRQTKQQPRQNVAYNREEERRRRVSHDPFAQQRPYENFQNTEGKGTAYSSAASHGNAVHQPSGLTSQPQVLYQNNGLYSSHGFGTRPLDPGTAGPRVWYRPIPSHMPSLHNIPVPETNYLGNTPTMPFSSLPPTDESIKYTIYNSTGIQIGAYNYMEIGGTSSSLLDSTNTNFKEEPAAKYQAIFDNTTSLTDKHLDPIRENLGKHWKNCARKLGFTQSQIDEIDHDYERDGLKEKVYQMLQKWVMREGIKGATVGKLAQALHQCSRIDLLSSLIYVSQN
# WNK2 = WNK2 (Homo sapiens, UniProt Q9Y3S1)
# FRK = FRK (Homo sapiens, UniProt P42685)
# FGFR3 = FGFR3 (Homo sapiens, UniProt P22607)
# SYK = SYK (Homo sapiens, UniProt P43405)
# FGFR4 = FGFR4 (Homo sapiens, UniProt P22455)
# YANK1 = target: T4, YANK1 (Homo sapiens, UniProt Q8WU08)
# T4 construct: gene STK32A
# [1] = read-out: Talazoparib (BMN 673) / %Ctrl @ 10000nM
# [2] = read-out: Olaparib / %Ctrl @ 10000nM
# [3] = read-out: Rucaparib / %Ctrl @ 10000nM, binding competition, % of control
# [4] = read-out: Niraparib (MK-4827) / %Ctrl @ 10000nM
# T4 sequence (Q8WU08 whole entry): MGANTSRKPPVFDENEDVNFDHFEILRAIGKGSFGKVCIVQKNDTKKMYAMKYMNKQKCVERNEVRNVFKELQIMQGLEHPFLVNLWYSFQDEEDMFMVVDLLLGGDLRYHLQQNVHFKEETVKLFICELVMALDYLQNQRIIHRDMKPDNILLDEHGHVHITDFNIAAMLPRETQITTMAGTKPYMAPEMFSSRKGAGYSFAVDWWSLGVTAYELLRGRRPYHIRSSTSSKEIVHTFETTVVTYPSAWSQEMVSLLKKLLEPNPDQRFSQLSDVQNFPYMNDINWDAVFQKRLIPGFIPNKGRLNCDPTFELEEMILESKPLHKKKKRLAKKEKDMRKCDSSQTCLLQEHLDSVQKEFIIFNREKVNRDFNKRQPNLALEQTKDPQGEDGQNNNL
# Sequence of FGFR3 (P22607 whole entry): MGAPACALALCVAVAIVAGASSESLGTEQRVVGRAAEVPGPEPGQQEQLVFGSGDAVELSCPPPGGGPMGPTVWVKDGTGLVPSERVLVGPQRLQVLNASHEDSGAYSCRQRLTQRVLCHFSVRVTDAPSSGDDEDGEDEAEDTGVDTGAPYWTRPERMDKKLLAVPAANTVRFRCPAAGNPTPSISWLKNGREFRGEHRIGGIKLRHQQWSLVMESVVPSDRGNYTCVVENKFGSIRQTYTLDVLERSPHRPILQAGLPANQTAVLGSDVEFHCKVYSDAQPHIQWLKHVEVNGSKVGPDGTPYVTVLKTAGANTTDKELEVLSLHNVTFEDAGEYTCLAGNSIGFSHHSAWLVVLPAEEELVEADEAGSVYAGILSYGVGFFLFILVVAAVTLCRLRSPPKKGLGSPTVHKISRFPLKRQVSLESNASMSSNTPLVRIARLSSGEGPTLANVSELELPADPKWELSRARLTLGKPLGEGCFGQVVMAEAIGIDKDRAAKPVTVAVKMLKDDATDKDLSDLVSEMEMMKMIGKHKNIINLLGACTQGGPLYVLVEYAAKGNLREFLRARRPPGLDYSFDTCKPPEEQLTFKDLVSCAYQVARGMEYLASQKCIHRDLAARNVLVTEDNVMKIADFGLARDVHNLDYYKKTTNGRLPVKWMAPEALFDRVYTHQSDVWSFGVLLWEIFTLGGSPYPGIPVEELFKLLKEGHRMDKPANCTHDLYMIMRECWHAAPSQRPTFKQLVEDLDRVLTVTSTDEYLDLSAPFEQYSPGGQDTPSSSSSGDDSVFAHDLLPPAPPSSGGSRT
# T2 sequence (Q13164 whole entry): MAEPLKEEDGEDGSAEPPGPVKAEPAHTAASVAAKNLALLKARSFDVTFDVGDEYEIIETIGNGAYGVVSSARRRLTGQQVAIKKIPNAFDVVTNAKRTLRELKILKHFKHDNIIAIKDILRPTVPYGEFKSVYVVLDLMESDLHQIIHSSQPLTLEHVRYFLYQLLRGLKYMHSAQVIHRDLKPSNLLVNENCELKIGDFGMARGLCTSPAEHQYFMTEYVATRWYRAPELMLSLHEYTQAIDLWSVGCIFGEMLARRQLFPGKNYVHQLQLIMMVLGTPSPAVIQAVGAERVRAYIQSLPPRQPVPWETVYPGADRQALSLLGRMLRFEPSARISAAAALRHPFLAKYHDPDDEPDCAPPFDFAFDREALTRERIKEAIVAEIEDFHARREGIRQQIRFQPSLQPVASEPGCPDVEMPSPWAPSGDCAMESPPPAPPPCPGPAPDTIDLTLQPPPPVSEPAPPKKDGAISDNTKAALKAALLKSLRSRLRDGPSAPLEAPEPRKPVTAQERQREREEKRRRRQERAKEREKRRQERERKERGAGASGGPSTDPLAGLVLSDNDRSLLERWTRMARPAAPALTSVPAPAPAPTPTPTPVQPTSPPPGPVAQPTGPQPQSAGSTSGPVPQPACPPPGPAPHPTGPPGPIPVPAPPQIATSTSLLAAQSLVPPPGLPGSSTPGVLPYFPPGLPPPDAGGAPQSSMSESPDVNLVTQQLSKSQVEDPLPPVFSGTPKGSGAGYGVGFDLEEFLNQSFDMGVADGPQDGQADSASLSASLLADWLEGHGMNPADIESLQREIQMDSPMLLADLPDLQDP
# Sequence of FRK (P42685 whole entry): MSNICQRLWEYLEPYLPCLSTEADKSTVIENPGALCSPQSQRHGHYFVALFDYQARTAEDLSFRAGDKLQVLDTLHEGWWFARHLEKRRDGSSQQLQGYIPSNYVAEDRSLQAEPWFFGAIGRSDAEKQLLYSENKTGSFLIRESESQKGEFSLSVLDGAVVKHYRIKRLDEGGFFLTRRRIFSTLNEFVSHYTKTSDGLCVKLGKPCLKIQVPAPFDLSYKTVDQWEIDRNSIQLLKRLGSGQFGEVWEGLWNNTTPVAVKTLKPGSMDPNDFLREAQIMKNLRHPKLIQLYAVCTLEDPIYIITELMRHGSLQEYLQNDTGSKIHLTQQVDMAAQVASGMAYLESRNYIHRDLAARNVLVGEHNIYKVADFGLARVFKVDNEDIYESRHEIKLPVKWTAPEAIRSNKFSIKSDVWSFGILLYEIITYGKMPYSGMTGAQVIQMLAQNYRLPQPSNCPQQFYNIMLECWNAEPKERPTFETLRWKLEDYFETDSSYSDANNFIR
# Sequence of WNK2 (Q9Y3S1 whole entry): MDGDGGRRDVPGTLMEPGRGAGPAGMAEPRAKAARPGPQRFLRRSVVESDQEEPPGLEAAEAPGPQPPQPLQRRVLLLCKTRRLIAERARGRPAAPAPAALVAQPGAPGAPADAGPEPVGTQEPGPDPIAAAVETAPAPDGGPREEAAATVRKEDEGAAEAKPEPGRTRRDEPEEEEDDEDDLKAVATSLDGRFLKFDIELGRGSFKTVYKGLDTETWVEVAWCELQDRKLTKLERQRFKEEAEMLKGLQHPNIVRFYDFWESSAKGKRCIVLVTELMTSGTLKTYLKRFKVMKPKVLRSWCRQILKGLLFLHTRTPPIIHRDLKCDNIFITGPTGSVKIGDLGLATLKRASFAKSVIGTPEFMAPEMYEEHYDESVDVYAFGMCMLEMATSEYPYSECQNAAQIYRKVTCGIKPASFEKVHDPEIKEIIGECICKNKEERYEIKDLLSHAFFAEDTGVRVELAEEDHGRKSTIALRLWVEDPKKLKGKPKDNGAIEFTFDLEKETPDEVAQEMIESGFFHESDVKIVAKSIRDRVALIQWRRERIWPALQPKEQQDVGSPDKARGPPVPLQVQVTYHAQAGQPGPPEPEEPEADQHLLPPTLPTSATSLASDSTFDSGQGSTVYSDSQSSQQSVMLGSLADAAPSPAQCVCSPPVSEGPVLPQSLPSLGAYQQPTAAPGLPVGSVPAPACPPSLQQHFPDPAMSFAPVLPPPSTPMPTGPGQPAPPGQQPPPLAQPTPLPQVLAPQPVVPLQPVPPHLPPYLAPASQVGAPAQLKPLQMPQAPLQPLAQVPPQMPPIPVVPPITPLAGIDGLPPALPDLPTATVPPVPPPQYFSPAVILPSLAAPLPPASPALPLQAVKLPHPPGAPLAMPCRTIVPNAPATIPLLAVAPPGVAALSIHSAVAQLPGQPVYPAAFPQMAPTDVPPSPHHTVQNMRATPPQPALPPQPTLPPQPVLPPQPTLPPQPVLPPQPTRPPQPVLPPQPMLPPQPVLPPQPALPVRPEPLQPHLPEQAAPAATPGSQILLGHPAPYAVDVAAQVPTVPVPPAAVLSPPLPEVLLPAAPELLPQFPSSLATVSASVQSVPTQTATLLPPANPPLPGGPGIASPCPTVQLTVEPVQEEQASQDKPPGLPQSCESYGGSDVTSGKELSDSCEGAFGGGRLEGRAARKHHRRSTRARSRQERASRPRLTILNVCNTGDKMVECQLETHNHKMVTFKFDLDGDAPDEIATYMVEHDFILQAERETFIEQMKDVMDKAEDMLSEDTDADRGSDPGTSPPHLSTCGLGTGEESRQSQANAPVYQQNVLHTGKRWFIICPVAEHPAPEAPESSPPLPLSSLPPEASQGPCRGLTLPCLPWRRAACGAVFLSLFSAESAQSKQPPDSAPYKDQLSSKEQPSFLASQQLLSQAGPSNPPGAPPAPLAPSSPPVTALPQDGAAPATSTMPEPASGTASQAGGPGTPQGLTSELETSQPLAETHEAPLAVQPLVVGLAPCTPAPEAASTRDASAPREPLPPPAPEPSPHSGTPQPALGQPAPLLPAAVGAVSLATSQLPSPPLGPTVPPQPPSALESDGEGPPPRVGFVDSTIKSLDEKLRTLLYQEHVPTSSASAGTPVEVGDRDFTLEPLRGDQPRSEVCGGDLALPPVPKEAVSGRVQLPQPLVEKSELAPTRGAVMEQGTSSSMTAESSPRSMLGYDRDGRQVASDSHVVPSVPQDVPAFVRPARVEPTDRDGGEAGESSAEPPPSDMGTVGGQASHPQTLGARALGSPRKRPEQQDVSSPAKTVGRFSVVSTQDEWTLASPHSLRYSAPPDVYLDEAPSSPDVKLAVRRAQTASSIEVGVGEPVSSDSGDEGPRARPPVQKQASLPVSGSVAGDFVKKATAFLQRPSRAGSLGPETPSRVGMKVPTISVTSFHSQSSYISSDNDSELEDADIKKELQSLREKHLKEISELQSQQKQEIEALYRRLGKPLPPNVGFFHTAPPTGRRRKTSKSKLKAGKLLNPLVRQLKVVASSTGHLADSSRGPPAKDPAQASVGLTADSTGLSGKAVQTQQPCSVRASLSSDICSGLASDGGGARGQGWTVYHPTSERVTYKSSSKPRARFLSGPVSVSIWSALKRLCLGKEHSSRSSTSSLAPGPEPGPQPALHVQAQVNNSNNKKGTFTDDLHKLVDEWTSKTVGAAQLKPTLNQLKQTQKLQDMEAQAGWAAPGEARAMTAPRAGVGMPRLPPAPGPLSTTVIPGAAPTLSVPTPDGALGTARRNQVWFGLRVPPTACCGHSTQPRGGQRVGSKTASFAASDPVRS
compound,measurement,setting,value
Cn1ncnc1[C@H]1c2n[nH]c(=O)c3cc(F)cc(c23)N[C@@H]1c1ccc(F)cc1 [Talazoparib],percent of control binding at 10 µM,MARK4; [1],100%
same,percent of control binding at 10 µM,ERK5; [1],99%
same,percent of control binding at 10 µM,RIPK1; [1],99%
same,percent of control binding at 10 µM,WNK2; [1],100%
same,percent of control binding at 10 µM,FRK; [1],85%
same,percent of control binding at 10 µM,FGFR3; [1],100%
same,percent of control binding at 10 µM,SYK; [1],85%
same,percent of control binding at 10 µM,FGFR4; [1],100%
same,percent of control binding at 10 µM,YANK1; [1],100%
O=C(c1cc(Cc2n[nH]c(=O)c3ccccc23)ccc1F)N1CCN(C(=O)C2CC2)CC1 [Olaparib],percent of control binding at 10 µM,MARK4; [2],88%
same,percent of control binding at 10 µM,ERK5; [2],100%
same,percent of control binding at 10 µM,RIPK1; [2],100%
same,percent of control binding at 10 µM,WNK2; [2],76%
same,percent of control binding at 10 µM,FRK; [2],90%
same,percent of control binding at 10 µM,FGFR3; [2],100%
same,percent of control binding at 10 µM,SYK; [2],100%
same,percent of control binding at 10 µM,FGFR4; [2],82%
same,percent of control binding at 10 µM,YANK1; [2],86%
CNCc1ccc(-c2[nH]c3cc(F)cc4c3c2CCNC4=O)cc1 [Rucaparib],percent of control binding at 10 µM,MARK4; [3],86%
same,percent of control binding at 10 µM,ERK5; [3],100%
same,percent of control binding at 10 µM,RIPK1; [3],99%
same,percent of control binding at 10 µM,WNK2; [3],66%
same,percent of control binding at 10 µM,FRK; [3],97%
same,percent of control binding at 10 µM,FGFR3; [3],99%
same,percent of control binding at 10 µM,SYK; [3],100%
same,percent of control binding at 10 µM,FGFR4; [3],91%
same,percent of control binding at 10 µM,YANK1; [3],69%
NC(=O)c1cccc2cn(-c3ccc([C@@H]4CCCNC4)cc3)nc12 [Niraparib],percent of control binding at 10 µM,MARK4; [4],98%
same,percent of control binding at 10 µM,ERK5; [4],100%
same,percent of control binding at 10 µM,RIPK1; [4],91%
same,percent of control binding at 10 µM,WNK2; [4],100%
same,percent of control binding at 10 µM,FRK; [4],91%
same,percent of control binding at 10 µM,FGFR3; [4],94%
same,percent of control binding at 10 µM,SYK; [4],82%
same,percent of control binding at 10 µM,FGFR4; [4],94%
same,percent of control binding at 10 µM,YANK1; [4],99%
